From PubChem BioAssay (NCI)
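The concentration for 50% growth inhibition is given as GI50. TGI is the concentration that stops growth completely.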

Experiments:
Test in all cases: inhibition of tumour cell growth, NCI panel, 384-well format
SK-MEL-5 melanoma = test system: SK-MEL-5 melanoma
TK-10 renal = test system: TK-10 renal
HS 578T breast = test system: HS 578T breast
SF-268 CNS = test system: SF-268 CNS
MOLT-4 leukemia = test system: MOLT-4 leukemia
HL-60(TB) leukemia = test system: HL-60(TB) leukemia
BT-549 breast = test system: BT-549 breast
HCT-15 colon = test system: HCT-15 colon
MDA-MB-231 breast = test system: MDA-MB-231 breast
NCI-H460 NSCLC = test system: NCI-H460 NSCLC
SF-539 CNS = test system: SF-539 CNS
SR leukemia = test system: SR leukemia
HT29 colon = test system: HT29 colon
IGROV1 ovarian = test system: IGROV1 ovarian
U251 glioblastoma = test system: U251 glioblastoma
OVCAR-8 ovarian = test system: OVCAR-8 ovarian
OVCAR-4 ovarian = test system: OVCAR-4 ovarian
UACC-257 melanoma = test system: UACC-257 melanoma
OVCAR-5 ovarian = test system: OVCAR-5 ovarian
SK-OV-3 ovarian = test system: SK-OV-3 ovarian
KM12 colon = test system: KM12 colon
ACHN renal = test system: ACHN renal
PC-3 prostate = test system: PC-3 prostate
MCF7 breast = test system: MCF7 breast
HOP-62 NSCLC = test system: HOP-62 NSCLC
LOX IMVI melanoma = test system: LOX IMVI melanoma
SF-295 CNS = test system: SF-295 CNS
DU-145 prostate = test system: DU-145 prostate
HCT-116 colon = test system: HCT-116 colon
HCC-2998 colon = test system: HCC-2998 colon
NCI/ADR-RES ovarian = test system: NCI/ADR-RES ovarian
NCI-H522 lung = test system: NCI-H522 lung
HOP-92 NSCLC = test system: HOP-92 NSCLC
MDA-MB-435 melanoma = test system: MDA-MB-435 melanoma
CAKI-1 renal = test system: CAKI-1 renal
EKVX NSCLC = test system: EKVX NSCLC
SK-MEL-28 melanoma = test system: SK-MEL-28 melanoma
OVCAR-3 ovarian = test system: OVCAR-3 ovarian
MDA-MB-468 breast = test system: MDA-MB-468 breast
SN12C renal = test system: SN12C renal
RPMI-8226 leukemia = test system: RPMI-8226 leukemia
SNB-75 CNS = test system: SNB-75 CNS
A498 renal = test system: A498 renal
A549 NSCLC = test system: A549 NSCLC
T-47D breast = test system: T-47D breast
COLO 205 colon = test system: COLO 205 colon
NCI-H322M lung = test system: NCI-H322M lung
SNB-19 CNS = test system: SNB-19 CNS
NCI-H226 lung = test system: NCI-H226 lung
MALME-3M melanoma = test system: MALME-3M melanoma
M14 melanoma = test system: M14 melanoma
786-0 renal = test system: 786-0 renal
CCRF-CEM leukemia = test system: CCRF-CEM leukemia
RXF 393 renal = test system: RXF 393 renal
UACC-62 melanoma = test system: UACC-62 melanoma
K-562 leukemia = test system: K-562 leukemia
UO-31 renal = test system: UO-31 renal
NCI-H23 lung = test system: NCI-H23 lung
SW-620 colon = test system: SW-620 colon

FC(F)c1nc2ccccc2n1-c1nc(N2CCOCC2)nc(N2CCOCC2)n1
GI50 (SK-MEL-5 melanoma): 191 nM
TGI (SK-MEL-5 melanoma): 1290 nM
GI50 (TK-10 renal): 224 nM
TGI (TK-10 renal): 1740 nM
GI50 (HS 578T breast): 202 nM
TGI (HS 578T breast): 2140 nM
GI50 (SF-268 CNS): 1540 nM
TGI (SF-268 CNS): > 100000 nM
GI50 (MOLT-4 leukemia): 166 nM
TGI (MOLT-4 leukemia): 716 nM
GI50 (HL-60(TB) leukemia): 138 nM
TGI (HL-60(TB) leukemia): 896 nM
GI50 (BT-549 breast): 207 nM
TGI (BT-549 breast): 1790 nM
GI50 (HCT-15 colon): 330 nM
TGI (HCT-15 colon): > 100000 nM
GI50 (MDA-MB-231 breast): 957 nM
TGI (MDA-MB-231 breast): > 100000 nM
GI50 (NCI-H460 NSCLC): 224 nM
TGI (NCI-H460 NSCLC): 2140 nM
GI50 (SF-539 CNS): 475 nM
TGI (SF-539 CNS): > 100000 nM
GI50 (SR leukemia): 147 nM
TGI (SR leukemia): 896 nM
GI50 (HT29 colon): 454 nM
TGI (HT29 colon): > 100000 nM
GI50 (IGROV1 ovarian): 44 nM
TGI (IGROV1 ovarian): 237 nM
GI50 (U251 glioblastoma): 1230 nM
TGI (U251 glioblastoma): > 100000 nM
GI50 (OVCAR-8 ovarian): 641 nM
TGI (OVCAR-8 ovarian): > 100000 nM
GI50 (OVCAR-4 ovarian): 25.2 nM
TGI (OVCAR-4 ovarian): 1530 nM
GI50 (UACC-257 melanoma): 278 nM
TGI (UACC-257 melanoma): 4260 nM
GI50 (OVCAR-5 ovarian): 133 nM
TGI (OVCAR-5 ovarian): 759 nM
GI50 (SK-OV-3 ovarian): 282 nM
TGI (SK-OV-3 ovarian): 5000 nM
GI50 (KM12 colon): 1400 nM
TGI (KM12 colon): > 100000 nM
GI50 (ACHN renal): 187 nM
TGI (ACHN renal): 1410 nM
GI50 (PC-3 prostate): 56 nM
TGI (PC-3 prostate): 825 nM
GI50 (MCF7 breast): 84.3 nM
TGI (MCF7 breast): > 100000 nM
GI50 (HOP-62 NSCLC): 420 nM
TGI (HOP-62 NSCLC): 3960 nM
GI50 (LOX IMVI melanoma): 598 nM
TGI (LOX IMVI melanoma): 4150 nM
GI50 (SF-295 CNS): 250 nM
TGI (SF-295 CNS): 2370 nM
GI50 (DU-145 prostate): 352 nM
TGI (DU-145 prostate): 2390 nM
GI50 (HCT-116 colon): 1350 nM
TGI (HCT-116 colon): > 100000 nM
GI50 (HCC-2998 colon): 23.1 nM
TGI (HCC-2998 colon): 2120 nM
GI50 (NCI/ADR-RES ovarian): 507 nM
TGI (NCI/ADR-RES ovarian): > 100000 nM
GI50 (NCI-H522 lung): 198 nM
TGI (NCI-H522 lung): 894 nM
GI50 (HOP-92 NSCLC): 303 nM
TGI (HOP-92 NSCLC): > 100000 nM
GI50 (MDA-MB-435 melanoma): 918 nM
TGI (MDA-MB-435 melanoma): 4750 nM
GI50 (CAKI-1 renal): 216 nM
TGI (CAKI-1 renal): > 100000 nM
GI50 (EKVX NSCLC): 169 nM
TGI (EKVX NSCLC): 1550 nM
GI50 (SK-MEL-28 melanoma): 402 nM
TGI (SK-MEL-28 melanoma): > 100000 nM
GI50 (OVCAR-3 ovarian): 174 nM
TGI (OVCAR-3 ovarian): 1080 nM
GI50 (MDA-MB-468 breast): 202 nM
TGI (MDA-MB-468 breast): 2090 nM
GI50 (SN12C renal): 19.8 nM
TGI (SN12C renal): 380 nM
GI50 (RPMI-8226 leukemia): 172 nM
TGI (RPMI-8226 leukemia): 608 nM
GI50 (SNB-75 CNS): 154 nM
TGI (SNB-75 CNS): 13900 nM
GI50 (A498 renal): 101 nM
TGI (A498 renal): 351 nM
GI50 (A549 NSCLC): 645 nM
TGI (A549 NSCLC): > 100000 nM
GI50 (T-47D breast): 171 nM
TGI (T-47D breast): 5380 nM
GI50 (COLO 205 colon): 246 nM
TGI (COLO 205 colon): 1980 nM
GI50 (NCI-H322M lung): 281 nM
TGI (NCI-H322M lung): 1980 nM
GI50 (SNB-19 CNS): 3370 nM
TGI (SNB-19 CNS): > 100000 nM
GI50 (NCI-H226 lung): 324 nM
TGI (NCI-H226 lung): 3020 nM

Cc1cnc(NC(=O)Nc2cc(Br)c(C)cc2OC[C@@H]2CNCCO2)cn1
GI50 (SK-MEL-5 melanoma): 329 nM
TGI (SK-MEL-5 melanoma): 1350 nM
GI50 (TK-10 renal): 106 nM
TGI (TK-10 renal): 366 nM
GI50 (MALME-3M melanoma): 135 nM
TGI (MALME-3M melanoma): 1340 nM
GI50 (HS 578T breast): 52.8 nM
TGI (HS 578T breast): 245 nM
GI50 (SF-268 CNS): 368 nM
TGI (SF-268 CNS): 2940 nM
GI50 (MOLT-4 leukemia): 131 nM
TGI (MOLT-4 leukemia): 262 nM
GI50 (HL-60(TB) leukemia): 47.8 nM
TGI (HL-60(TB) leukemia): 174 nM
GI50 (BT-549 breast): 84.9 nM
TGI (BT-549 breast): 258 nM
GI50 (HCT-15 colon): 303 nM
TGI (HCT-15 colon): 1130 nM
GI50 (M14 melanoma): 27.1 nM
TGI (M14 melanoma): 83.3 nM
GI50 (MDA-MB-231 breast): 608 nM
TGI (MDA-MB-231 breast): 6180 nM
GI50 (NCI-H460 NSCLC): 290 nM
TGI (NCI-H460 NSCLC): 1430 nM
GI50 (SF-539 CNS): 54.3 nM
TGI (SF-539 CNS): 201 nM
GI50 (HT29 colon): 326 nM
TGI (HT29 colon): 1120 nM
GI50 (IGROV1 ovarian): 354 nM
TGI (IGROV1 ovarian): 12200 nM
GI50 (U251 glioblastoma): 497 nM
TGI (U251 glioblastoma): 1730 nM
GI50 (OVCAR-8 ovarian): 153 nM
TGI (OVCAR-8 ovarian): 443 nM
GI50 (OVCAR-4 ovarian): 163 nM
TGI (OVCAR-4 ovarian): 1390 nM
GI50 (UACC-257 melanoma): 1420 nM
TGI (UACC-257 melanoma): 2730 nM
GI50 (SK-OV-3 ovarian): 157 nM
TGI (SK-OV-3 ovarian): 412 nM
GI50 (KM12 colon): 72.3 nM
TGI (KM12 colon): 510 nM
GI50 (ACHN renal): 58.5 nM
TGI (ACHN renal): 254 nM
GI50 (PC-3 prostate): 1240 nM
TGI (PC-3 prostate): 14200 nM
GI50 (MCF7 breast): 56.3 nM
TGI (MCF7 breast): 1680 nM
GI50 (HOP-62 NSCLC): 143 nM
TGI (HOP-62 NSCLC): 512 nM
GI50 (LOX IMVI melanoma): 1140 nM
TGI (LOX IMVI melanoma): 2390 nM
GI50 (SF-295 CNS): 42.2 nM
TGI (SF-295 CNS): 210 nM
GI50 (DU-145 prostate): 347 nM
TGI (DU-145 prostate): 1490 nM
GI50 (HCT-116 colon): 977 nM
TGI (HCT-116 colon): 2300 nM
GI50 (HCC-2998 colon): 41.4 nM
TGI (HCC-2998 colon): 180 nM
GI50 ([…]-0 renal): 101 nM
TGI (786-0 renal): 427 nM
GI50 (CCRF-CEM leukemia): 100 nM
TGI (CCRF-CEM leukemia): 219 nM
GI50 (NCI/ADR-RES ovarian): 254 nM
TGI (NCI/ADR-RES ovarian): 701 nM
GI50 (NCI-H522 lung): 1940 nM
TGI (NCI-H522 lung): 5840 nM
GI50 (RXF 393 renal): 36.3 nM
TGI (RXF 393 renal): 165 nM
GI50 (HOP-92 NSCLC): 106 nM
TGI (HOP-92 NSCLC): 851 nM
GI50 (UACC-62 melanoma): 284 nM
TGI (UACC-62 melanoma): 1640 nM
GI50 (MDA-MB-435 melanoma): 194 nM
TGI (MDA-MB-435 melanoma): 389 nM
GI50 (CAKI-1 renal): 469 nM
TGI (CAKI-1 renal): 2860 nM
GI50 (K-562 leukemia): 157 nM
TGI (K-562 leukemia): 323 nM
GI50 (EKVX NSCLC): 436 nM
TGI (EKVX NSCLC): 11400 nM
GI50 (SK-MEL-28 melanoma): 1050 nM
TGI (SK-MEL-28 melanoma): 2230 nM
GI50 (OVCAR-3 ovarian): 188 nM
TGI (OVCAR-3 ovarian): 781 nM
GI50 (UO-31 renal): 264 nM
TGI (UO-31 renal): 1850 nM
GI50 (MDA-MB-468 breast): 485 nM
TGI (MDA-MB-468 breast): 2660 nM
GI50 (NCI-H23 lung): 56 nM
TGI (NCI-H23 lung): 244 nM
GI50 (SN12C renal): 1800 nM
TGI (SN12C renal): 6090 nM
GI50 (RPMI-8226 leukemia): 146 nM
TGI (RPMI-8226 leukemia): 317 nM
GI50 (SW-620 colon): 693 nM
TGI (SW-620 colon): 2050 nM
GI50 (SNB-75 CNS): 369 nM
TGI (SNB-75 CNS): 2950 nM
GI50 (A498 renal): 25.5 nM
TGI (A498 renal): 81.8 nM
GI50 (A549 NSCLC): 706 nM
TGI (A549 NSCLC): 14300 nM
GI50 (T-47D breast): 1860 nM
TGI (T-47D breast): 3630 nM
GI50 (COLO 205 colon): 1690 nM
TGI (COLO 205 colon): 4720 nM
GI50 (NCI-H322M lung): 195 nM
TGI (NCI-H322M lung): 1830 nM
GI50 (SNB-19 CNS): 482 nM
TGI (SNB-19 CNS): 4850 nM
GI50 (NCI-H226 lung): 5040 nM
TGI (NCI-H226 lung): 18100 nM
